Values after ≈ are worked out from the molar mass of the structure shown. Where two headings read alike, the source gives them in different places.
Legend:
[1] = tested on: 385 Escherichia coli and 126 Klebsiella pneumoniae isolates; test: MIC, MIC50 and MIC90 by reference broth microdilution against 511 UTI/bloodstream isolates (USA and Europe 2014-2015); assay type: cell-based
CTX-M-15 = CTX-M-15 (Escherichia coli, UniProt Q9EXV5); test: Competition assay with nitrocefin (IC50); assay type: biochemical
CTX-M-15, sequence (Q9EXV5 entry or part of it): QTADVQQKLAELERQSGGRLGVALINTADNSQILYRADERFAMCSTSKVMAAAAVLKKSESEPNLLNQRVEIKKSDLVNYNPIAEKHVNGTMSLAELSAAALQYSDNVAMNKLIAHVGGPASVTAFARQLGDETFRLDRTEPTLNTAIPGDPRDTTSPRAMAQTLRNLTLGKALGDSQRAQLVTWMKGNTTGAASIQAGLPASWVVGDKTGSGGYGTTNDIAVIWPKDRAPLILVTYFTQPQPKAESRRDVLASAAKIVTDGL

[2] = tested on: Burkholderia pseudomallei 1026b; test: microbe, parasite or virus in culture; assay type: cell-based

SMILES: Nc1nc(/C(=C/CC(=O)O)C(=O)N[C@@H]2C(=O)N3C(C(=O)O)=CCS[C@H]23)cs1 [Ceftibuten, ceftibuten]
- cumulative % of isolates at MIC ([1]; MIC 0.06 μg/mL, E. coli (385)): (0.3) %
- cumulative % of isolates at MIC ([1]; MIC 0.06 μg/mL, Isolates producing CTX-M Group 9 (92)): (2.2) %
- cumulative % of isolates at MIC ([1]; MIC 0.06 μg/mL, Isolates producing SHV ESBL (18)): (16.7) %
- cumulative % of isolates at MIC ([1]; MIC 0.06 μg/mL, K pneumoniae (126)): (6.3) %
- cumulative % of isolates at MIC ([1]; MIC 0.5 μg/mL, All CTX-M-producing E. coli (294)): (10.5) %
- cumulative % of isolates at MIC ([1]; MIC 0.5 μg/mL, All CTX-M-producing K pneumoniae (71)): (7.0) %
- cumulative % of isolates at MIC ([1]; MIC 0.5 μg/mL, All CTX-M-producing isolates (365)): (9.9) %
- cumulative % of isolates at MIC ([1]; MIC 0.5 μg/mL, E. coli (385)): (10.4) %
- cumulative % of isolates at MIC ([1]; MIC 0.5 μg/mL, Enterobacteriaceae (511)): (10.8) %
- cumulative % of isolates at MIC ([1]; MIC 0.5 μg/mL, Isolates producing CTX-M Group 1 (276)): (3.6) %
- cumulative % of isolates at MIC ([1]; MIC 0.5 μg/mL, Isolates producing CTX-M Group 9 (92)): (28.3) %
- cumulative % of isolates at MIC ([1]; MIC 0.5 μg/mL, Isolates producing SHV ESBL (18)): (38.9) %
- cumulative % of isolates at MIC ([1]; MIC 0.5 μg/mL, K pneumoniae (126)): (11.9) %
- cumulative % of isolates at MIC ([1]; MIC 1 μg/mL, All CTX-M-producing E. coli (294)): (22.1) %
- cumulative % of isolates at MIC ([1]; MIC 1 μg/mL, All CTX-M-producing K pneumoniae (71)): (9.9) %
- cumulative % of isolates at MIC ([1]; MIC 1 μg/mL, All CTX-M-producing isolates (365)): (19.7) %
- cumulative % of isolates at MIC ([1]; MIC 1 μg/mL, E. coli (385)): (19.7) %
- cumulative % of isolates at MIC ([1]; MIC 1 μg/mL, Isolates producing CTX-M Group 1 (276)): (9.1) %
- cumulative % of isolates at MIC ([1]; MIC 1 μg/mL, Isolates producing CTX-M Group 9 (92)): (50.0) %
- cumulative % of isolates at MIC ([1]; MIC 1 μg/mL, Isolates producing SHV ESBL (18)): (55.6) %
- cumulative % of isolates at MIC ([1]; MIC 1 μg/mL, K pneumoniae (126)): (15.1) %
- cumulative % of isolates at MIC ([1]; MIC 2 μg/mL, All CTX-M-producing E. coli (294)): (34.4) %
- cumulative % of isolates at MIC ([1]; MIC 2 μg/mL, All CTX-M-producing K pneumoniae (71)): (15.5) %
- cumulative % of isolates at MIC ([1]; MIC 2 μg/mL, All CTX-M-producing isolates (365)): (30.7) %
- cumulative % of isolates at MIC ([1]; MIC 2 μg/mL, E. coli (385)): (30.4) %
- cumulative % of isolates at MIC ([1]; MIC 2 μg/mL, Isolates producing CTX-M Group 1 (276)): (15.2) %
- cumulative % of isolates at MIC ([1]; MIC 2 μg/mL, Isolates producing CTX-M Group 9 (92)): (76.1) %
- cumulative % of isolates at MIC ([1]; MIC 2 μg/mL, Isolates producing SHV ESBL (18)): (61.1) %
- cumulative % of isolates at MIC ([1]; MIC 2 μg/mL, K pneumoniae (126)): (19.0) %
- cumulative % of isolates at MIC ([1]; MIC 4 μg/mL, All CTX-M-producing E. coli (294)): (45.6) %
- cumulative % of isolates at MIC ([1]; MIC 4 μg/mL, All CTX-M-producing K pneumoniae (71)): (32.4) %
- cumulative % of isolates at MIC ([1]; MIC 4 μg/mL, All CTX-M-producing isolates (365)): (43.0) %
- cumulative % of isolates at MIC ([1]; MIC 4 μg/mL, E. coli (385)): (40.0) %
- cumulative % of isolates at MIC ([1]; MIC 4 μg/mL, Isolates producing CTX-M Group 1 (276)): (28.3) %
- cumulative % of isolates at MIC ([1]; MIC 4 μg/mL, Isolates producing CTX-M Group 9 (92)): (87.0) %
- cumulative % of isolates at MIC ([1]; MIC 4 μg/mL, Isolates producing SHV ESBL (18)): (66.7) %
- cumulative % of isolates at MIC ([1]; MIC 4 μg/mL, K pneumoniae (126)): (31.7) %
- cumulative % of isolates at MIC ([1]; MIC 8 μg/mL, All CTX-M-producing E. coli (294)): (66.3) %
- cumulative % of isolates at MIC ([1]; MIC 8 μg/mL, All CTX-M-producing K pneumoniae (71)): (56.3) %
- cumulative % of isolates at MIC ([1]; MIC 8 μg/mL, All CTX-M-producing isolates (365)): (64.4) %
- cumulative % of isolates at MIC ([1]; MIC 8 μg/mL, E. coli (385)): (56.9) %
- cumulative % of isolates at MIC ([1]; MIC 8 μg/mL, Isolates producing CTX-M Group 1 (276)): (55.8) %
- cumulative % of isolates at MIC ([1]; MIC 8 μg/mL, Isolates producing CTX-M Group 9 (92)): (89.1) %
- cumulative % of isolates at MIC ([1]; MIC 8 μg/mL, Isolates producing SHV ESBL (18)): (72.2) %
- cumulative % of isolates at MIC ([1]; MIC 8 μg/mL, K pneumoniae (126)): (53.2) %
- cumulative % of isolates at MIC ([1]; MIC 16 μg/mL, All CTX-M-producing E. coli (294)): (83.0) %
- cumulative % of isolates at MIC ([1]; MIC 16 μg/mL, All CTX-M-producing K pneumoniae (71)): (73.2) %
- cumulative % of isolates at MIC ([1]; MIC 16 μg/mL, All CTX-M-producing isolates (365)): (81.1) %
- cumulative % of isolates at MIC ([1]; MIC 16 μg/mL, E. coli (385)): (73.0) %
- cumulative % of isolates at MIC ([1]; MIC 16 μg/mL, Isolates producing CTX-M Group 1 (276)): (76.8) %
- cumulative % of isolates at MIC ([1]; MIC 16 μg/mL, Isolates producing CTX-M Group 9 (92)): (92.4) %
- cumulative % of isolates at MIC ([1]; MIC 16 μg/mL, Isolates producing SHV ESBL (18)): (94.4) %
- cumulative % of isolates at MIC ([1]; MIC 16 μg/mL, K pneumoniae (126)): (69.0) %
- cumulative % of isolates at MIC ([1]; MIC >[…] μg/mL, All CTX-M-producing E. coli (294)): (100.0) %
- cumulative % of isolates at MIC ([1]; MIC >[…] μg/mL, All CTX-M-producing K pneumoniae (71)): (100.0) %
- cumulative % of isolates at MIC ([1]; MIC >[…] μg/mL, All CTX-M-producing isolates (365)): (100.0) %
- cumulative % of isolates at MIC ([1]; MIC >[…] μg/mL, E. coli (385)): (100.0) %
- cumulative % of isolates at MIC ([1]; MIC >[…] μg/mL, Isolates producing CTX-M Group 1 (276)): (100.0) %
- cumulative % of isolates at MIC ([1]; MIC >[…] μg/mL, Isolates producing CTX-M Group 9 (92)): (100.0) %
- cumulative % of isolates at MIC ([1]; MIC >[…] μg/mL, Isolates producing SHV ESBL (18)): (100.0) %
- cumulative % of isolates at MIC ([1]; MIC >[…] μg/mL, K pneumoniae (126)): (100.0) %
- cumulative % of isolates at MIC ([1]; MIC […] μg/mL, All CTX-M-producing E. coli (294)): (91.8) %
- cumulative % of isolates at MIC ([1]; MIC […] μg/mL, All CTX-M-producing K pneumoniae (71)): (83.1) %
- cumulative % of isolates at MIC ([1]; MIC […] μg/mL, All CTX-M-producing isolates (365)): (90.1) %
- cumulative % of isolates at MIC ([1]; MIC […] μg/mL, E. coli (385)): (82.1) %
- cumulative % of isolates at MIC ([1]; MIC […] μg/mL, Isolates producing CTX-M Group 1 (276)): (87.7) %
- cumulative % of isolates at MIC ([1]; MIC […] μg/mL, Isolates producing CTX-M Group 9 (92)): (95.7) %
- cumulative % of isolates at MIC ([1]; MIC […] μg/mL, Isolates producing SHV ESBL (18)): (94.4) %
- cumulative % of isolates at MIC ([1]; MIC […] μg/mL, K pneumoniae (126)): (79.4) %
- cumulative % of isolates at MIC ([1]; MIC […], Enterobacteriaceae (511)): (5.1) %
- IC50 (CTX-M-15): > 1000 µM
- IC50 (CTX-M-15; read-out: IC50 (95% CI), competition with nitrocefin): > 1000 µM
- MIC [2]: 8 µg/mL (≈ 19.5 µM)

From US20180015100A1, “COMBINATION PRODUCTS FOR THE TREATMENT OF BACTERIAL INFECTIONS AND METHODS OF PRODUCING OR DOSING OF SAME” (priority 2016, published 2018)
